This note sets out measurements from PMC8667930, “Novel sulphonamide-bearing methoxyquinazolinone derivatives as anticancer and apoptosis inducers: synthesis, biological evaluation and in silico studies” (Journal of Enzyme Inhibition and Medicinal Chemistry, 2021).

Molecules are shown by their SMILES.

In series [1] the test system is A549 cells (non-small cell lung carcinoma). The series is described as follows: MTT cytotoxicity assay, A549. The conditions noted are these: mean ± SD (n = 3), NA = no activity; for IC50: Homo sapiens, A549, 48 h treatment; for IC50, A549: 48 h treatment. The series is classed as cell-based. How it is done: (§1) The MTT assay was performed to test the antiproliferative activity of the synthesised compounds, as per the methodology described by Alqahtani and co-workers[35]. Briefly, A549, HepG2, LoVo, MCF-7 and HUVEC cell lines were seeded in 96-cell culture plates (5 × 10^4 per well) and allowed 24 h for adherence. The cells were then treated with different concentrations of each compound, and 5-fluorouracil was used as a positive control. Following the treatment period (48 h), 10 µL of MTT solution (5 mg/mL) was added to each well and the plates were incubated at 37 °C for 2–4 h. Isopropanol (100 µL) acidified with 0.1 N HCl was added to solubilise the formazan products and the plate was kept on a shaker for 10 min. The optical density of each mixture was measured at 570 nm using an enzyme-linked immunosorbent assay plate reader (ELISA plate reader, Bio-Tek, USA). The concentrations of tested compounds required to inhibit cell growth by 50% (IC50) were calculated using a dose-response curve. Cell survival was calculated using the following equation: Cell survival (%)=(OD of treated sample)/(OD of untreated sample)×100
(Formazan colour is commonly taken as a measure of viable cells.)

The subject of series [2] is HepG2 cells (liver cancer). Put plainly: MTT cytotoxicity assay, HepG2. The format is cell-based. Conditions: mean ± SD (n = 3), NA = no activity; for IC50: Homo sapiens, HepG2, 48 h treatment; for IC50, HepG2: 48 h treatment. The protocol:
as §1

Series [3] has as its system LoVo cells (colon cancer). The series is described as follows: MTT cytotoxicity assay, LoVo. The format is cell-based. The conditions noted are these: 48 h treatment, mean ± SD (n = 3), NA = no activity; for IC50: Homo sapiens, LoVo. The protocol: as §1
The test system of series [4] is MCF-7 cells (human breast cancer cell line). The series is described as follows: MTT cytotoxicity assay, MCF-7. The series is classed as cell-based. Conditions: mean ± SD (n = 3), NA = no activity; for IC50: Homo sapiens, MCF7, 48 h treatment; for IC50, MCF-7: 48 h treatment. The protocol: as §1
Series [5] relates to HUVEC (normal human umbilical vein endothelial cells). The series is described as follows: MTT cytotoxicity assay, HUVEC. The format is cell-based. The conditions noted are these: 48 h treatment, mean ± SD (n = 3), NA = no activity; for IC50: Homo sapiens, HUVEC. The protocol:
as §1

As usually defined, the IC50 is the concentration needed to halve the response being measured. Regarding `O=c1[nH]cc(F)c(=O)[nH]1` [5-Flurouracil, 5-Fluorouracil, reference compound], the IC50 is 98.86 ± 0.01 µM in series [1]; 132.4 ± 0.6 µM in series [2]; 90.71 ± 0.5 µM in series [3]; 95.63 ± 0.3 µM in series [4]; 167 ± 0.2 µM in series [5].

For orientation: melting point means the temperature, or range, at which the solid turns liquid. `COc1cccc2c(=O)n(-c3ccc(S(N)(=O)=O)cc3)c(SCC(=O)Nc3ccccc3)nc12` [Compound 5, 2-((8-Methoxy-4-oxo-3–(4-sulphamoylphenyl)-3,4-dihydroquinazolin-2-yl)thio)-N-phenyl-acetamide]: the melting point is above 350 °C. In addition, in series [1], the “IC50, A549” value is given as “no activity”. In series [2], the “IC50, HepG2” value is “no activity”. Also, in series [3], the “IC50, LoVo” value is on record as “no activity”. Moreover, in series [4], the “IC50, MCF-7” value is on record as “no activity”. Also, in series [5], the “IC50, HUVEC” value was “no activity”.

`COc1cccc2c(=O)n(-c3ccc(S(N)(=O)=O)cc3)c(SCC(=O)Nc3cccc(C)c3)nc12` [Compound 7, 2-((8-Methoxy-4-oxo-3-(4-sulphamoylphenyl)-3,4-dihydroquinazolin-2-yl)thio)-N-(m-tolyl) acetamide] had a melting point above 350 °C. Besides, in series [1], inhibition was half-maximal at 58.6 ± 1.52 µM (IC50). This molecule also registered an IC50 in series [2] of 39.7 ± 2.27 µM. Besides, the midpoint of inhibition in series [3], the IC50, lay at 30.1 ± 1.3 µM. In addition, inhibition in series [4] was half-maximal at 27.7 ± 1.85 µM (IC50). The molecule further displayed an IC50 in series [5] of 83.2 ± 0.9 µM.

In turn, `COc1cccc2c(=O)n(-c3ccc(S(N)(=O)=O)cc3)c(SCC(=O)Nc3ccc(C)cc3)nc12` [Compound 8, 2-((8-Methoxy-4-oxo-3-(4-sulphamoylphenyl)-3,4-dihydroquinazolin-2-yl)thio)-N-(p-tolyl) acetamide] yielded a melting point above 350 °C. Moreover, in series [1], the “IC50, A549” value is recorded as “no activity”. For the same molecule, in series [2], the “IC50, HepG2” value is recorded as “no activity”. For the same molecule, the “IC50, LoVo” value in series [3] is listed as “no activity”. Also, the “IC50, MCF-7” value in series [4] is on record as “no activity”. Also, the “IC50, HUVEC” value in series [5] was “no activity”.

In the case of `CCc1ccccc1NC(=O)CSc1nc2c(OC)cccc2c(=O)n1-c1ccc(S(N)(=O)=O)cc1` [Compound 9, N-(2-Ethylphenyl)-2-((8-methoxy-4-oxo-3-(4-sulphamoylphenyl)-3,4-dihydroquinazolin-2-yl)thio) acetamide], the melting point was 288 to 290 °C. Besides, the “IC50, A549” value in series [1] is reported as “no activity”. Besides, in series [2], the “IC50, HepG2” value is “no activity”. Moreover, in series [3], the “IC50, LoVo” value is listed as “no activity”. Also, in series [4], the “IC50, MCF-7” value is reported as “no activity”. Further, in series [5], the “IC50, HUVEC” value is given as “no activity”.

Molecule `CCc1ccc(NC(=O)CSc2nc3c(OC)cccc3c(=O)n2-c2ccc(S(N)(=O)=O)cc2)cc1` [Compound 11, N-(4-Ethylphenyl)-2-((8-methoxy-4-oxo-3-(4-sulphamoylphenyl)-3,4-dihydroquinazolin-2-yl)thio) acetamide] registered a melting point of 280 to 282 °C. In series [1], inhibition was half-maximal at 50.5 ± 1.73 µM (IC50). The same molecule gave a half-maximal inhibitory concentration (IC50) in series [2] of 42.7 ± 0.84 µM. Further, in series [4], the IC50 came to 29.4 ± 0.33 µM. The IC50 in series [5] was found to be 32.9 ± 1.4 µM.

Molecule `COc1ccc(NC(=O)CSc2nc3c(OC)cccc3c(=O)n2-c2ccc(S(N)(=O)=O)cc2)cc1` [Compound 12, 2-((8-Methoxy-4-oxo-3-(4-sulphamoylphenyl)-3,4-dihydroquinazolin-2-yl)thio)-N-(p-methoxyphenyl) acetamide] returned a melting point of 296 to 298 °C. In addition, the “IC50, A549” value in series [1] is “no activity”. The “IC50, HepG2” value in series [2] was “no activity”. In addition, the “IC50, LoVo” value in series [3] is “no activity”. In addition, in series [4], the “IC50, MCF-7” value is listed as “no activity”. Moreover, the “IC50, HUVEC” value in series [5] is listed as “no activity”.

On to `CCOc1ccc(NC(=O)CSc2nc3c(OC)cccc3c(=O)n2-c2ccc(S(N)(=O)=O)cc2)cc1` [Compound 13, N-(p-Ethoxyphenyl)-2-((8-methoxy-4-oxo-3-(4-sulphamoylphenyl)-3,4-dihydroquin-azolin-2-yl)thio) acetamide], for which the melting point fell in the range of 300 to 302 °C. The molecule further showed an IC50 in series [1] of 61.9 ± 1.35 µM. The IC50 in series [2] stood at 38 ± 0.47 µM. The same molecule returned an IC50 in series [3] of 54.4 ± 2.07 µM. In series [4], this molecule came in with a half-maximal inhibitory concentration (IC50) of 46.7 ± 1.23 µM. In addition, in series [5], inhibition was half-maximal at 39 ± 1.4 µM (IC50).

The molecule `COc1cc(NC(=O)CSc2nc3c(OC)cccc3c(=O)n2-c2ccc(S(N)(=O)=O)cc2)cc(OC)c1` [Compound 14, N-(3,5-Dimethoxyphenyl)-2-((8-methoxy-4-oxo-3-(4-sulphamoylphenyl)-3,4-dihydroq-uinazolin-2-yl)thio) acetamide] registered a melting point of 240 to 242 °C. For the same molecule, the midpoint of inhibition in series [1], the IC50, lay at 68.34 ± 0.42 µM. In addition, the midpoint of inhibition in series [2], the IC50, lay at 72.5 ± 1.06 µM. In addition, in series [3], the half-maximal inhibitory concentration (IC50) amounted to 38.3 ± 0.65 µM. Further, in series [4], it took 34.6 ± 1.15 µM to reach half-maximal inhibition (IC50). Besides, 62.6 ± 2.34 µM corresponded to half-maximal inhibition in series [5] (IC50).

`COc1cc(NC(=O)CSc2nc3c(OC)cccc3c(=O)n2-c2ccc(S(N)(=O)=O)cc2)cc(OC)c1OC` [Compound 15, 2-((8-Methoxy-4-oxo-3-(4-sulphamoylphenyl)-3,4-dihydroquinazolin-2-yl)thio)-N-(3,4,5-trimethoxyphenyl) acetamide]: the melting point was in the range of 290 to 292 °C. Besides, in series [1], the concentration for half-maximal inhibition (IC50) amounted to 75 ± 1.74 µM. In addition, the IC50 in series [2] was 75.2 ± 0.96 µM. Further, in series [3], the IC50 is 47.5 ± 4.08 µM. In addition, the midpoint of inhibition in series [4], the IC50, lay at 74 ± 2.16 µM. It took 79 ± 1.09 µM to reach half-maximal inhibition in series [5] (IC50).

`COc1cccc2c(=O)n(-c3ccc(S(N)(=O)=O)cc3)c(SCC(=O)Nc3ccc([N+](=O)[O-])cc3C)nc12` [Compound 16, 2-((8-Methoxy-4-oxo-3-(4-sulphamoylphenyl)-3,4-dihydroquinazolin-2-yl)thio)-N-(2-methyl-4-nitrophenyl) acetamide] came in with a melting point above 350 °C. The IC50 in series [1] was determined as 67.4 ± 1.45 µM. The same molecule registered a concentration for half-maximal inhibition (IC50) in series [2] of 75.7 ± 1.85 µM. The same molecule had an IC50 in series [3] of 40.98 ± 0.12 µM. The molecule also showed an IC50 in series [4] of 39.9 ± 0.57 µM. This molecule yielded an IC50 in series [5] of 80.8 ± 1.13 µM.

The molecule `COc1cccc2c(=O)n(-c3ccc(S(N)(=O)=O)cc3)c(SCC(=O)Nc3c(C)cccc3[N+](=O)[O-])nc12` [Compound 17, 2-((8-Methoxy-4-oxo-3-(4-sulphamoylphenyl)-3,4-dihydroquinazolin-2-yl)thio)-N-(2-methyl-6-nitrophenyl) acetamide] yielded a melting point above 350 °C. In addition, the “IC50, A549” value in series [1] was “no activity”. Besides, the “IC50, HepG2” value in series [2] was “no activity”. Moreover, the “IC50, LoVo” value in series [3] is recorded as “no activity”. For the same molecule, in series [4], the “IC50, MCF-7” value was “no activity”. Besides, the “IC50, HUVEC” value in series [5] is listed as “no activity”.
